Experimental findings from patent US20240182445A1 (ONO PHARMACEUTICAL CO., LTD., priority 2019, published 2024) are described below.

The structures appear in SMILES notation.

One experiment addresses T1, human TREK-1 (Homo sapiens, UniProt O95069).
T1 construct: expressed in transfected cells
T1 sequence (O95069 1-426): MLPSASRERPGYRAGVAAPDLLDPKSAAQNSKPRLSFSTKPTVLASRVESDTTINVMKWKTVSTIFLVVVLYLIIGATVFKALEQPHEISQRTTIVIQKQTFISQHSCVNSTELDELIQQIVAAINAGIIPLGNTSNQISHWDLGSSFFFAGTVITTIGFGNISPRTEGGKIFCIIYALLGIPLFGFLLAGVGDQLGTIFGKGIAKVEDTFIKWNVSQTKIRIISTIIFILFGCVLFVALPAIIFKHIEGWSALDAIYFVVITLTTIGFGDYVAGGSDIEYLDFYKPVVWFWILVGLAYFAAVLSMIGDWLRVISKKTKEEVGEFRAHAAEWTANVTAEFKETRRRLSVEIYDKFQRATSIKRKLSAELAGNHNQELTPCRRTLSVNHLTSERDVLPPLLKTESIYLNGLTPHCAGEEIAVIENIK
Put plainly: TREK-1 Thallium (Tl+) flux assay, Method 1. In kind it is cell-based. The following applies: TREK-1 Thallium (Tl+) flux assay, Method 1. The procedure, abridged: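 CHO-K1 cells stably expressing human TREK-1, loaded with Thallos dye, received compound or 0.3% DMSO vehicle for 10 min before thallium stimulus buffer. ΔRatio is fluorescence at 25 s after thallium addition over mean pre-addition fluorescence; % inhibition calculated from it.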
`CC(=O)N1CCC(n2ncc(Cl)c2C(=O)Nc2ncc(-c3cc(F)c(Cl)c(F)c3)cc2C)CC1` [Compound 426, 1-(1-acetylpiperidin-4-yl)-4-chloro-N-(5-(4-chloro-3,5-difluorophenyl)-3-methylpyridin-2-yl)-1H-pyrazole-5-carboxamide]: inhibition was half-maximal at 5120 nM (IC50). This lies in the single-digit micromolar range.

With `Cc1cc(-c2ccc(-c3cccs3)cc2)cnc1NC(=O)c1c(Cl)cnn1C1CCN(C(=O)OC(C)(C)C)CC1` [Compound 410, tert-butyl 4-(4-chloro-5-((3-methyl-5-(4-(thiophen-2-yl)phenyl)pyridin-2-yl)carbamoyl)-1H-pyrazol-1-yl)piperidine-1-carboxylate], half-maximal inhibition (IC50) was put at 2780 nM.

The experiment is the same for the next values; noted with them: TREK-1 Thallium (Tl+) flux assay; no *^12 (Method 2) mark on these rows.
Regarding `Cc1cc(C#Cc2ccc(F)cc2)cnc1NC(=O)c1c(Cl)cnn1CC1CCCN(C(=O)C2CC2C)C1` (centres unmarked) [Compound 264, 4-chloro-N-(5-((4-fluorophenyl)ethynyl)-3-methylpyridin-2-yl)-1-((1-(2-methylcyclopropane-1-carbonyl)piperidin-3-yl)methyl)-1H-pyrazole-5-carboxamide], 430 nM corresponded to half-maximal inhibition (IC50). On the same count and under the same terms, the same measure for `Cc1cc(C#Cc2ccccc2)cnc1NC(=O)c1c(Cl)cnn1CC1CCN(C(=O)C(C)C)CC1(F)F` (centres unmarked) [Compound 231, 4-chloro-1-((3,3-difluoro-1-isobutyrylpiperidin-4-yl)methyl)-N-(3-methyl-5-(phenylethynyl)pyridin-2-yl)-1H-pyrazole-5-carboxamide]: 350 nM; for `CC(C)(C)OC(=O)N[C@H]1CC[C@H](n2ncc(Cl)c2C(=O)Nc2ncc(C#Cc3ccccc3)cc2F)CC1` [Compound 360, tert-butyl (trans-4-(4-chloro-5-((3-fluoro-5-(phenylethynyl)pyridin-2-yl)carbamoyl)-1H-pyrazol-1-yl)cyclohexyl)carbamate]: 900 nM. For `Cc1cc(C#Cc2ccc(F)cc2)cnc1NC(=O)c1c(Cl)cnn1CC1CCCN(C(=O)C2CC2)C1` (centres unmarked) [Compound 271, 4-chloro-1-((1-(cyclopropanecarbonyl)piperidin-3-yl)methyl)-N-(5-((4-fluorophenyl)ethynyl)-3-methylpyridin-2-yl)-1H-pyrazole-5-carboxamide], inhibition was half-maximal at 460 nM (IC50). The same measure, in the same setting: the same measure for `Cc1cc(C#Cc2ccccc2)cnc1NC(=O)c1c(Cl)cnn1CCC1CCN(C(=O)OC(C)(C)C)CC1` [Compound 308, tert-butyl 4-(2-(4-chloro-5-((3-methyl-5-(phenylethynyl)pyridin-2-yl)carbamoyl)-1H-pyrazol-1-yl)ethyl)piperidine-1-carboxylate]: 580 nM; for `Cc1cc(C#Cc2cccc(F)c2)cnc1NC(=O)c1c(Cl)cnn1[C@H]1C[C@@H]2CN(C(=O)C(C)C)C[C@@H]2C1` [Compound 349, 4-chloro-N-{5-[(3-fluorophenyl)ethynyl]-3-methylpyridin-2-yl}-1-[(3aR,5s,6aS)-2-(2-methylpropanoyl)octahydrocyclopenta [c]pyrrol-5-yl]-1H-pyrazole-5-carboxamide]: 810 nM. Still for that read-out and setting: the same measure for `Cc1cc(OCc2ccccc2)ccc1NC(=O)c1c(Cl)cnn1C1CCN(C(=O)C2COCCO2)CC1` (centres unmarked) [Compound 391, 1-(1-(1,4-dioxane-2-carbonyl)piperidin-4-yl)-N-(4-(benzyloxy)-2-methylphenyl)-4-chloro-1H-pyrazole-5-carboxamide]: 1250 nM. Take `Cc1cc(C#Cc2ccccc2)cnc1NC(=O)c1c(Cl)cnn1CC1CCOC1` (centres unmarked) [Compound 232, 4-chloro-N-(3-methyl-5-(phenylethynyl)pyridin-2-yl)-1-((tetrahydrofuran-3-yl)methyl)-1H-pyrazole-5-carboxamide]: the IC50 (as a rule, the point on the concentration scale where inhibition reaches its midpoint) came to 360 nM. Still for that read-out and setting: the same measure for `Cc1cc(C#Cc2ccccc2)cnc1NC(=O)c1c(Cl)cnn1[C@H]1C[C@@H](NC(=O)C(C)C)C1` [Compound 207, 4-chloro-1-(cis-3-isobutyramidocyclobutyl)-N-(3-methyl-5-(phenylethynyl)pyridin-2-yl)-1H-pyrazole-5-carboxamide]: 310 nM; for `Cc1cc(C#Cc2ccccc2)cnc1NC(=O)c1c(Cl)cnn1CC1CCCO1` (centres unmarked) [Compound 345, 4-chloro-N-(3-methyl-5-(phenylethynyl)pyridin-2-yl)-1-((tetrahydrofuran-2-yl)methyl)-1H-pyrazole-5-carboxamide]: 770 nM; for `Cc1cc(C#Cc2ccccc2)cnc1NC(=O)c1c(Cl)cnn1CC1(C#N)CC1` [Compound 267, 4-chloro-1-((1-cyanocyclopropyl)methyl)-N-(3-methyl-5-(phenylethynyl)pyridin-2-yl)-1H-pyrazole-5-carboxamide]: 450 nM. Same read-out and setting: as for `COc1ncc(-c2cnc(NC(=O)c3c(Cl)cnn3C3CCN(C(=O)OC(C)(C)C)CC3)c(C)c2)cc1F` [Compound 383, tert-butyl 4-(4-chloro-5-((5′-fluoro-6′-methoxy-5-methyl-[3,3′-bipyridin]-6-yl)carbamoyl)-1H-pyrazol-1-yl)piperidine-1-carboxylate], the figure is 680 nM. On the same count and under the same terms, the same measure for `CC(=O)N1CC[C@@H](Cn2ncc(Cl)c2C(=O)Nc2ncc(C#Cc3ccccc3)cc2C)[C@H](F)C1` [Compound 208, 1-(((3S,4S)-1-acetyl-3-fluoropiperidin-4-yl)methyl)-4-chloro-N-(3-methyl-5-(phenylethynyl)pyridin-2-yl)-1H-pyrazole-5-carboxamide]: 310 nM.

Still in this experiment, the particulars now being: TREK-1 Thallium (Tl+) flux assay; values without footnote *12 are Method 1.
`CC(C)(C)OC(=O)N1CCC(C#N)(Cn2ncc(Cl)c2C(=O)Nc2ncc(C#Cc3ccccc3)cc2F)CC1` [Compound 83, tert-butyl 4-((4-chloro-5-((3-fluoro-5-(phenylethynyl)pyridin-2-yl)carbamoyl)-1H-pyrazol-1-yl)methyl)-4-cyanopiperidine-1-carboxylate] returned an IC50 of 160 nM.

`O=C(Nc1ncc(C#Cc2cccs2)cc1F)c1c(Cl)cnn1C1CCN(C(=O)C2CC2)CC1` [Compound 139, 4-chloro-1-(1-(cyclopropanecarbonyl)piperidin-4-yl)-N-(3-fluoro-5-(thiophen-2-ylethynyl)pyridin-2-yl)-1H-pyrazole-5-carboxamide] gave an IC50 of 220 nM. Same read-out and setting: the same measure for `CCNC(=O)N1C[C@H]2C[C@H](n3ncc(Cl)c3C(=O)Nc3ncc(C#Cc4cccc(F)c4)cc3C)C[C@H]2C1` [Compound 132, (3aR,5s,6aS)-5-[4-chloro-5-({5-[(3-fluorophenyl)ethynyl]-3-methylpyridin-2-yl}carbamoyl)-1H-pyrazol-1-yl]-N-ethylhexahydrocyclopenta[c]pyrrole-2(1H)-carboxamide]: 220 nM; for `CCC(=O)N1CCC(n2ncc(Cl)c2C(=O)Nc2ncc(C#Cc3ccccc3)cc2C)C1` (centres unmarked) [Compound 106, 4-chloro-N-(3-methyl-5-(phenylethynyl)pyridin-2-yl)-1-(1-propionylpyrrolidin-3-yl)-1H-pyrazole-5-carboxamide]: 190 nM; for `Cc1cc(C#Cc2ccc(F)cc2)cnc1NC(=O)c1c(Cl)cnn1C1CC2(C1)CN(C(=O)C1CC1)C2` [Compound 115, 4-chloro-1-(2-(cyclopropanecarbonyl)-2-azaspiro[3.3]heptan-6-yl)-N-(5-((4-fluorophenyl)ethynyl)-3-methylpyridin-2-yl)-1H-pyrazole-5-carboxamide]: 200 nM. Same read-out and setting: as for `CCC(=O)N1CC(n2ncc(Cl)c2C(=O)Nc2ncc(C#Cc3ccccc3)cc2C)C1` [Compound 137, 4-chloro-N-(3-methyl-5-(phenylethynyl)pyridin-2-yl)-1-(1-propionylazetidin-3-yl)-1H-pyrazole-5-carboxamide], the figure is 220 nM; as for `CCC(=O)N1CCC(n2ncc(Cl)c2C(=O)Nc2ncc(C#Cc3ccc(F)cc3)cc2C)CC1` [Compound 66, 4-chloro-N-(5-((4-fluorophenyl)ethynyl)-3-methylpyridin-2-yl)-1-(1-propionylpiperidin-4-yl)-1H-pyrazole-5-carboxamide], 150 nM. Still for that read-out and setting: the same measure for `CC(C)C(=O)N1CC[C@H](Cn2ncc(Cl)c2C(=O)Nc2ncc(C#Cc3ccccc3)cc2F)[C@H](F)C1` [Compound 58, 4-chloro-1-(((3S,4R)-3-fluoro-1-isobutyrylpiperidin-4-yl)methyl)-N-(3-fluoro-5-(phenylethynyl)pyridin-2-yl)-1H-pyrazole-5-carboxamide]: 140 nM; for `CC(=O)N1CCC(Cn2ncc(Cl)c2C(=O)Nc2ncc(C#Cc3ccccc3)cc2F)C(F)(F)C1` (centres unmarked) [Compound 192, 1-((1-acetyl-3,3-difluoropiperidin-4-yl)methyl)-4-chloro-N-(3-fluoro-5-(phenylethynyl)pyridin-2-yl)-1H-pyrazole-5-carboxamide]: 290 nM.

Still in this experiment, the particulars now being: read-out: Tl^+ Assay % inhibition at 30 uM (Minus value indicates activation of TREK-1); at 30 uM; CHO-K1 cells stably expressing human TREK-1; minus = activation.
With `Cc1cc(C#Cc2ccccc2)cnc1NC(=O)c1nn(C2CCOCC2)cc1Cl` [Compound 443, 4-chloro-N-(3-methyl-5-(phenylethynyl)pyridin-2-yl)-1-(tetrahydro-2H-pyran-4-yl)-1H-pyrazole-3-carboxamide], the inhibition (as a rule, the drop in the measured response relative to a control, in per cent) at 30 µM was -116%.

For `Cc1cc(C#Cc2cccc(F)c2)cnc1NC(=O)c1nn(CCC2CCN(C(=O)C3CC3)CC2)cc1Cl` [Compound 450, 4-chloro-1-(2-(1-(cyclopropanecarbonyl)piperidin-4-yl)ethyl)-N-(5-((3-fluorophenyl)ethynyl)-3-methylpyridin-2-yl)-1H-pyrazole-3-carboxamide], the inhibition at 30 µM was -94%.
